Data: US4843066A, “Novel adenosine derivatives and pharmaceutical composition containing them as an active ingredient” (priority 1986, dated 1989)
Read-outs that look alike come from different tables or passages of the source.

How the values were obtained:
[1] = in vivo; settings: mouse, oral, in 0.5% C.M.C., ddY male mice, death rate for 7 days
[2] = test system: spontaneously hypertensive rats (SHR); assay: Antihypertensive activity (blood pressure after oral administration); assay type: in vivo; settings: for inhibition in vivo at 30 mg/kg / inhibition in vivo at 10 mg/kg / inhibition in vivo at 100 mg/kg / inhibition in vivo at 200 mg/kg: Rattus norvegicus, decrease vs before; for inhibition in vivo at 30 mg/kg / Blood pressure 2 hrs / Blood pressure 4 hrs / Blood pressure 6 hrs / inhibition in vivo at 10 mg/kg / inhibition in vivo at 100 mg/kg / inhibition in vivo at 200 mg/kg: SHR; for Blood pressure 2 hrs: 2 hrs after administration; for Blood pressure 2 hrs / Blood pressure 4 hrs / Blood pressure 6 hrs: mean ± S.E.; for Blood pressure 4 hrs: 4 hrs after administration; for Blood pressure 6 hrs: 6 hrs after administration
Protocol: The test compounds, which were dissolved or suspended in 0.5% C.M.C. aqueous solution, were orally administered to groups of 3 or 4 spontaneously hypertensive rats (SHR), weighing about 300 to 400 g. Blood pressure was measured before and 2, 4 and 6 hours after the administration.

[3] = in vivo
[4] = oral 30 mg/kg, 2 hrs, read-out: Blood pressure 2 hrs [Decrease]
[5] = oral 30 mg/kg, 4 hrs, read-out: Blood pressure 4 hrs [Decrease]
[6] = oral 30 mg/kg, 6 hrs, read-out: Blood pressure 6 hrs [Decrease]
[7] = oral 10 mg/kg, 2 hrs, read-out: Blood pressure 2 hrs [Decrease]
[8] = oral 10 mg/kg, 4 hrs, read-out: Blood pressure 4 hrs [Decrease]
[9] = oral 10 mg/kg, 6 hrs, read-out: Blood pressure 6 hrs [Decrease]
[10] = oral 100 mg/kg, 2 hrs, read-out: Blood pressure 2 hrs [Decrease]
[11] = oral 100 mg/kg, 4 hrs, read-out: Blood pressure 4 hrs [Decrease]
[12] = oral 100 mg/kg, 6 hrs, read-out: Blood pressure 6 hrs [Decrease]
[13] = oral 200 mg/kg, 2 hrs, read-out: Blood pressure 2 hrs [Decrease]
[14] = oral 200 mg/kg, 4 hrs, read-out: Blood pressure 4 hrs [Decrease]
[15] = oral 200 mg/kg, 6 hrs, read-out: Blood pressure 6 hrs [Decrease]

CNc1nc(C)nc2c1ncn2[C@@H]1O[C@H](CO)[C@@H](O)[C@H]1OC [Compound 21, 2,N^6,2'-O-trimethyladenosine]
LD50 at 168 h [1]: ~400 mg/kg | inhibition in vivo at 30 mg/kg [2, 4]: 23.9% | inhibition in vivo at 30 mg/kg [2, 5]: 16.9% | inhibition in vivo at 30 mg/kg [2, 6]: 10.8% | Blood pressure 2 hrs ([2]; oral 30 mg/kg): 159 ± 20 mmHg | Blood pressure 4 hrs ([2]; oral 30 mg/kg): 172 ± 7 mmHg | Blood pressure 6 hrs ([2]; oral 30 mg/kg): 188 ± 8 mmHg

CNc1ncnc2c1ncn2[C@@H]1O[C@H](CO)[C@@H](O)[C@H]1OC [Compound 17, N^6-2'-O-dimethyladenosine]
inhibition in vivo at 30 mg/kg [2, 4]: 17.1% | inhibition in vivo at 30 mg/kg [2, 5]: 11.7% | inhibition in vivo at 30 mg/kg [2, 6]: 14.1% | Blood pressure 2 hrs ([2]; oral 30 mg/kg): 192 ± 15 mmHg | Blood pressure 4 hrs ([2]; oral 30 mg/kg): 204 ± 5 mmHg | Blood pressure 6 hrs ([2]; oral 30 mg/kg): 199 ± 8 mmHg

CNc1ncnc2c1ncn2[C@@H]1O[C@H](COC)[C@@H](O)[C@H]1O [Compound 19, N^6-5'-O-dimethyladenosine]
LD50 at 168 h [1]: 1300 mg/kg | inhibition in vivo at 30 mg/kg [2, 4]: 43% | inhibition in vivo at 30 mg/kg [2, 5]: 27.1% | inhibition in vivo at 30 mg/kg [2, 6]: 26.3% | Blood pressure 2 hrs ([2]; oral 30 mg/kg): 122 ± 8 mmHg | Blood pressure 4 hrs ([2]; oral 30 mg/kg): 155 ± 7 mmHg | Blood pressure 6 hrs ([2]; oral 30 mg/kg): 157 ± 12 mmHg

CNc1nc(C)nc2c1ncn2[C@@H]1O[C@H](COC)[C@@H](O)[C@H]1O [Compound 24, 2,N^6,5'-O-trimethyladenosine]
LD50 at 168 h [1]: 1320 mg/kg | inhibition in vivo at 10 mg/kg [2, 7]: 43.3% | inhibition in vivo at 10 mg/kg [2, 8]: 27% | inhibition in vivo at 10 mg/kg [2, 9]: 23% | Blood pressure 2 hrs ([2]; oral 10 mg/kg): 128 ± 7 mmHg | Blood pressure 4 hrs ([2]; oral 10 mg/kg): 165 ± 7 mmHg | Blood pressure 6 hrs ([2]; oral 10 mg/kg): 174 ± 4 mmHg

CCO[C@@H]1[C@H](O)[C@@H](CO)O[C@H]1n1cnc2c(N)ncnc21 [Compound 3, 2'-O-ethyladenosine]
LD50 at 168 h [1]: 750 to 1000 mg/kg | inhibition in vivo at 100 mg/kg [2, 10]: 52.2% | inhibition in vivo at 100 mg/kg [2, 11]: 49.5% | inhibition in vivo at 100 mg/kg [2, 12]: 47.3% | Blood pressure 2 hrs ([2]; oral 100 mg/kg): 102 ± 15 mmHg | Blood pressure 4 hrs ([2]; oral 100 mg/kg): 106 ± 20 mmHg | Blood pressure 6 hrs ([2]; oral 100 mg/kg): 111 ± 26 mmHg

COC[C@H]1O[C@@H](n2cnc3c(N)ncnc32)[C@H](O)[C@@H]1O [Compound 11, 5'-O-methyladenosine]
LD50 at 168 h [1]: 800 mg/kg | inhibition in vivo at 30 mg/kg [2, 4]: 18.2% | inhibition in vivo at 30 mg/kg [2, 5]: 5.9% | inhibition in vivo at 30 mg/kg [2, 6]: 6.6% | Blood pressure 2 hrs ([2]; oral 30 mg/kg): 189 ± 3 mmHg | Blood pressure 4 hrs ([2]; oral 30 mg/kg): 206 ± 10 mmHg | Blood pressure 6 hrs ([2]; oral 30 mg/kg): 204 ± 9 mmHg

CO[C@@H]1[C@H](O)[C@@H](CO)O[C@H]1n1cnc2c(N)nc(Cl)nc21 [Compound 27, 2-chloro-2'-O-methyladenosine]
LD50 at 168 h [1]: ~400 mg/kg | inhibition in vivo at 100 mg/kg [2, 10]: 68.4% | inhibition in vivo at 100 mg/kg [2, 11]: 64.8% | inhibition in vivo at 100 mg/kg [2, 12]: 66.9% | Blood pressure 2 hrs ([2]; oral 100 mg/kg): 70 ± 10 mmHg | Blood pressure 4 hrs ([2]; oral 100 mg/kg): 78 ± 8 mmHg | Blood pressure 6 hrs ([2]; oral 100 mg/kg): 73 ± 16 mmHg

COC[C@H]1O[C@@H](n2cnc3c(N)nc(C)nc32)[C@H](O)[C@@H]1O [Compound 15, 2,5'-O-dimethyladenosine]
LD50 at 168 h [1]: 500 to 1000 mg/kg | inhibition in vivo at 10 mg/kg [2, 7]: 35.2% | inhibition in vivo at 10 mg/kg [2, 8]: 17.7% | inhibition in vivo at 10 mg/kg [2, 9]: 9.1% | Blood pressure 2 hrs ([2]; oral 10 mg/kg): 154 ± 13 mmHg | Blood pressure 4 hrs ([2]; oral 10 mg/kg): 195 ± 22 mmHg | Blood pressure 6 hrs ([2]; oral 10 mg/kg): 215 ± 5 mmHg

CO[C@@H]1[C@H](O)[C@@H](CO)O[C@H]1n1cnc2c(N)nc(C)nc21 [Compound 5, 2,2'-O-dimethyladenosine]
LD50 at 168 h [1]: 540 mg/kg | inhibition in vivo at 10 mg/kg [2, 7]: 40.2% | inhibition in vivo at 10 mg/kg [2, 8]: 26.5% | inhibition in vivo at 10 mg/kg [2, 9]: 12.7% | Blood pressure 2 hrs ([2]; oral 10 mg/kg): 131 ± 6 mmHg | Blood pressure 4 hrs ([2]; oral 10 mg/kg): 161 ± 11 mmHg | Blood pressure 6 hrs ([2]; oral 10 mg/kg): 193 ± 24 mmHg

CO[C@@H]1[C@H](O)[C@@H](CO)O[C@H]1n1cnc2c(N)nc(F)nc21 [Compound 29, 2-fluoro-2'-O-methyladenosine]
LD50 at 168 h [1]: > 2000 mg/kg | inhibition in vivo at 30 mg/kg [2, 4]: 45.9% | inhibition in vivo at 30 mg/kg [2, 5]: 19.8% | inhibition in vivo at 30 mg/kg [2, 6]: 16.4% | Blood pressure 2 hrs ([2]; oral 30 mg/kg): 131 ± 4 mmHg | Blood pressure 4 hrs ([2]; oral 30 mg/kg): 195 ± 5 mmHg | Blood pressure 6 hrs ([2]; oral 30 mg/kg): 204 ± 3 mmHg

CCO[C@@H]1[C@H](O)[C@@H](CO)O[C@H]1n1cnc2c(N)nc(C)nc21 [Compound 9, 2-methyl-2'-O-ethyladenosine]
LD50 at 168 h [1]: 500 to 1000 mg/kg | inhibition in vivo at 30 mg/kg [2, 4]: 23.6% | inhibition in vivo at 30 mg/kg [2, 5]: 10.7% | inhibition in vivo at 30 mg/kg [2, 6]: 13.5% | Blood pressure 2 hrs ([2]; oral 30 mg/kg): 169 ± 7 mmHg | Blood pressure 4 hrs ([2]; oral 30 mg/kg): 197 ± 5 mmHg | Blood pressure 6 hrs ([2]; oral 30 mg/kg): 191 ± 9 mmHg

CCO[C@@H]1[C@H](O)[C@@H](CO)O[C@H]1n1cnc2c(NC)nc(C)nc21 [Compound 22, 2,N^6-dimethyl-2'-O-ethyladenosine]
LD50 at 168 h [1]: ~400 mg/kg | inhibition in vivo at 10 mg/kg [2, 7]: 25.8% | inhibition in vivo at 10 mg/kg [2, 8]: 18.8% | inhibition in vivo at 10 mg/kg [2, 9]: 13.1% | Blood pressure 2 hrs ([2]; oral 10 mg/kg): 168 ± 6 mmHg | Blood pressure 4 hrs ([2]; oral 10 mg/kg): 185 ± 7 mmHg | Blood pressure 6 hrs ([2]; oral 10 mg/kg): 197 ± 3 mmHg

Nc1ncnc2c1ncn2[C@@H]1O[C@H](CO)[C@@H](O)[C@H]1O [Adenosine, adenosine]
inhibition in vivo at 200 mg/kg [2, 13]: -6.1% | inhibition in vivo at 200 mg/kg [2, 14]: 1.8% | inhibition in vivo at 200 mg/kg [2, 15]: -3.2% | Blood pressure 2 hrs ([2]; oral 200 mg/kg): 202 ± 12 mmHg | Blood pressure 4 hrs ([2]; oral 200 mg/kg): 187 ± 3 mmHg | Blood pressure 6 hrs ([2]; oral 200 mg/kg): 198 ± 4 mmHg | hypotensive effect (in words) ([2]; oral administration): does not decrease blood pressure | bradycardia (side effect) [3]: Bradycardia was observed

CO[C@H]1[C@@H](O)[C@H](n2cnc3c(N)ncnc32)O[C@@H]1CO [Compound 2, 3'-O-methyladenosine]
LD50 at 168 h [1]: > 2000 mg/kg | inhibition in vivo at 200 mg/kg [2, 13]: 41.2% | inhibition in vivo at 200 mg/kg [2, 14]: 29% | inhibition in vivo at 200 mg/kg [2, 15]: 27.2% | Blood pressure 2 hrs ([2]; oral 200 mg/kg): 135 ± 28 mmHg | Blood pressure 4 hrs ([2]; oral 200 mg/kg): 163 ± 40 mmHg | Blood pressure 6 hrs ([2]; oral 200 mg/kg): 167 ± 47 mmHg

CO[C@@H]1[C@H](O)[C@@H](CO)O[C@H]1n1cnc2c(N)ncnc21 [Compound 1, 2'-O-methyladenosine]
LD50 at 168 h [1]: > 2000 mg/kg | inhibition in vivo at 200 mg/kg [2, 13]: 53.2% | inhibition in vivo at 200 mg/kg [2, 14]: 45.8% | inhibition in vivo at 200 mg/kg [2, 15]: 42.8% | Blood pressure 2 hrs ([2]; oral 200 mg/kg): 103 ± 21 mmHg | Blood pressure 4 hrs ([2]; oral 200 mg/kg): 121 ± 32 mmHg | Blood pressure 6 hrs ([2]; oral 200 mg/kg): 128 ± 41 mmHg
